According to US8247211B2, “Glycopeptide antibiotics” (American Cyanamid Company, priority 2001, dated 2012):
Converted amounts (≈) assume the structure as drawn.

Assays:
Assay in all cases: In vitro antibacterial evaluation: minimum inhibitory concentration (MIC), broth dilution method
Format in all cases: cell-based
Enterococcus sp. = tested on: Enterococcus sp.
Description: (§1) The minimum inhibitory concentration (MIC), the lowest concentration of the antibiotic which inhibits growth of the test organism, is determined by the broth dilution method using Muller-Hinton II […] (Baltimore Biological Laboratories) following the recommendations of the National Committee for Clinical Laboratory Standards [Methods for dilution antimicrobial susceptibility tests for bacteria that grow aerobically, approved standard M7-A2, National Committee for Clinical Laboratory Standards, Villanova, Pa].
(§2) An inoculum level of 5×10^5 CFU/mL, and a range of antibiotic concentrations (64-0.06 μg/mL) is used. […] The test organisms include a spectrum of Gram-positive bacteria comprised of Staphylococcus sp., Streptococcus sp. and Enterococcus sp. These organisms include recent clinical isolates that are resistant to methicillin, penicillin and/or vancomycin.

Escherichia coli = tested on: Escherichia coli
Description: as §1, §2

Staphylococcus sp. = conditions: broth dilution, 18 hours at 35° C.
Description: as §1, §2

Streptococcus sp. = tested on: Streptococcus sp.
Description: as §1, §2

MIC Enterococcus faecalis (GC 2242) (Enterococcus sp.; Enterococcus faecalis (GC 2242), broth dilution, 18 hours at 35° C.): 4 µg/mL (≈ 2.62 µM) | MIC Enterococcus faecalis (GC 2691) (Enterococcus sp.; Enterococcus faecalis (GC 2691), broth dilution, 18 hours at 35° C.): 4 µg/mL (≈ 2.62 µM) | MIC Enterococcus faecalis (GC 3059) (Enterococcus sp.; Enterococcus faecalis (GC 3059), broth dilution, 18 hours at 35° C.): 4 µg/mL (≈ 2.62 µM) | MIC Enterococcus faecalis (ATCC 29212) (Enterococcus sp.; strain ATCC 29212): 4 µg/mL (≈ 2.62 µM) | MIC Enterococcus faecalis (GC 2242) (Enterococcus sp.; strain GC 2242): 4 µg/mL (≈ 2.62 µM) | MIC Enterococcus faecium (GC 2243) (Enterococcus sp.; strain GC 2243): 2 µg/mL (≈ 1.31 µM) | MIC Enterococcus faecalis (GC 2691) (Enterococcus sp.; strain GC 2691): 4 µg/mL (≈ 2.62 µM) | MIC Enterococcus faecalis (GC 3059) (Enterococcus sp.; strain GC 3059): 4 µg/mL (≈ 2.62 µM) | MIC Enterococcus faecalis (GC 4552) (Enterococcus sp.; strain GC 4552): 4 µg/mL (≈ 2.62 µM) | MIC Enterococcus faecalis (GC 4553) (Enterococcus sp.; strain GC 4553): 2 µg/mL (≈ 1.31 µM) | MIC Enterococcus faecalis (GC 4554) (Enterococcus sp.; strain GC 4554): 4 µg/mL (≈ 2.62 µM) | MIC Enterococcus faecium (GC 4556) (Enterococcus sp.; strain GC 4556): 4 µg/mL (≈ 2.62 µM) | MIC Enterococcus faecium (GC 4557) (Enterococcus sp.; strain GC 4557): 1 µg/mL (≈ 0.655 µM) | MIC Enterococcus avium (GC 4558) (Enterococcus sp.; strain GC 4558): 2 µg/mL (≈ 1.31 µM) | MIC Enterococcus faecalis (GC 6189) (Enterococcus sp.; strain GC 6189): 4 µg/mL (≈ 2.62 µM) | MIC Escherichia coli (ATCC 25922) (Escherichia coli; strain ATCC 25922): 64 µg/mL (≈ 41.9 µM) | MIC Escherichia coli (GC 4559) (Escherichia coli; strain GC 4559): 32 µg/mL (≈ 21 µM) | MIC Escherichia coli (GC 4560) (Escherichia coli; strain GC 4560): 2 µg/mL (≈ 1.31 µM) | MIC Staphylococcus aureus (ATCC 29213) (Staphylococcus sp.): 2 µg/mL (≈ 1.31 µM) | MIC Staphylococcus aureus (GC 1131) (Staphylococcus sp.): 4 µg/mL (≈ 2.62 µM) | MIC Staphylococcus aureus (GC 3051) (Staphylococcus sp.): 4 µg/mL (≈ 2.62 µM) | MIC Staphylococcus aureus (GC 3053) (Staphylococcus sp.): 4 µg/mL (≈ 2.62 µM) | MIC Staphylococcus aureus (GC 4541) (Staphylococcus sp.): 2 µg/mL (≈ 1.31 µM) | MIC Staphylococcus aureus (GC 4542) (Staphylococcus sp.): 4 µg/mL (≈ 2.62 µM) | MIC Staphylococcus aureus (GC 4544) (Staphylococcus sp.): 4 µg/mL (≈ 2.62 µM) | MIC Staphylococcus aureus (GC 4545) (Staphylococcus sp.): 2 µg/mL (≈ 1.31 µM) | MIC Staphylococcus aureus-SMITH (GC 4543) (Staphylococcus sp.; strain SMITH GC 4543): 2 µg/mL (≈ 1.31 µM) | MIC Streptococcus agalactiae (GC 4564) (Streptococcus sp.; Streptococcus agalactiae (GC 4564), broth dilution, 18 hours at 35° C.): 0.25 µg/mL (≈ 0.164 µM) | MIC Streptococcus pneumoniae (ATCC 6301) (Streptococcus sp.; Streptococcus pneumoniae (ATCC 6301), broth dilution, 18 hours at 35° C.): 0.5 µg/mL (≈ 0.328 µM) | MIC Streptococcus pneumoniae (GC 1894) (Streptococcus sp.; Streptococcus pneumoniae (GC 1894), broth dilution, 18 hours at 35° C.): <0.12 µg/mL | MIC Streptococcus pneumoniae (GC 4565) (Streptococcus sp.; Streptococcus pneumoniae (GC 4565), broth dilution, 18 hours at 35° C.): 0.25 µg/mL (≈ 0.164 µM) | MIC Streptococcus pyogenes (GC 4563) (Streptococcus sp.; Streptococcus pyogenes (GC 4563), broth dilution, 18 hours at 35° C.): 0.25 µg/mL (≈ 0.164 µM) | MIC Streptococcus pneumoniae (ATCC 6301) (Streptococcus sp.; strain ATCC 6301): 0.5 µg/mL (≈ 0.328 µM) | MIC Streptococcus pneumoniae (GC 1894) (Streptococcus sp.; strain GC 1894): <0.12 µg/mL | MIC Streptococcus pyogenes (GC 4563) (Streptococcus sp.; strain GC 4563): 0.25 µg/mL (≈ 0.164 µM) | MIC Streptococcus agalactiae (GC 4564) (Streptococcus sp.; strain GC 4564): 0.25 µg/mL (≈ 0.164 µM) | MIC Streptococcus pneumoniae (GC 4565) (Streptococcus sp.; strain GC 4565): 0.25 µg/mL (≈ 0.164 µM)
Structure (SMILES): CCCCCCCN1CC(C(O)C2NC(=O)C(C(O)C3CNC(=N)N3)NC(=O)C(Cc3ccc(OC4OC(CO)C(OC5OC6COC7(OC6C(O)C5O)C5CC6CC(C5)CC7C6)C(O)C4O)cc3)NC(=O)C(C(C)c3ccccc3)NC(=O)CNC(=O)C(CO)NC2=O)N(C2OC(CO)C(O)C(O)C2O)C1=N (stereo not drawn) [Example 83, Cyclo[glycyl-β-methylphenylalanyl-O-[4-O-[4,6-O-(2-adamantylidene)hexopyranosyl]hexopyranosyl]tyrosyl-3-(2-iminoimidazolidin-4-yl)seryl-3-[1-heptyl-3-hexopyranosyl-2-iminoimidazolidin-4-yl]serylseryl]]
